Source: PMC10879502, “Linking ATP and allosteric sites to achieve superadditive binding with bivalent EGFR kinase inhibitors” (Communications Chemistry, 2024)

Key:
Assay in all cases: KINOMEscan
Type in all cases: binding
Settings in all cases: 1 μM
[1] = molecular target: T1, AAK1 (Homo sapiens, UniProt Q2M2I8)
T1 construct: purchased Eurofins DiscoverX Corporation

[2] = molecular target: T2, ABL1(F317L)-phosphorylated (Homo sapiens, UniProt P00519, F317L)
T2 construct: purchased Eurofins DiscoverX Corporation

[3] = molecular target: ACVRL1 (Homo sapiens, UniProt P37023)
[4] = molecular target: AURKB (Homo sapiens, UniProt Q96GD4)
[5] = molecular target: BIKE (Homo sapiens, UniProt Q9NSY1)
[6] = molecular target: T3, CAMKK2 (Homo sapiens, UniProt Q96RR4)
T3 construct: purchased Eurofins DiscoverX Corporation (KINOMEscan)

[7] = molecular target: T4, CDC2L1 (Homo sapiens, UniProt P21127)
T4 construct: purchased Eurofins DiscoverX Corporation (KINOMEscan)

[8] = molecular target: CDK4 (Homo sapiens, UniProt P11802)
[9] = molecular target: CDK4-cyclinD3 (Homo sapiens, UniProt P11802)
[10] = molecular target: CDKL2 (Homo sapiens, UniProt Q92772)
[11] = molecular target: CIT (Homo sapiens, UniProt O14578)
[12] = molecular target: CSF1R (Homo sapiens, UniProt P07333)
[13] = molecular target: T5, DYRK1B (Homo sapiens, UniProt Q9Y463)
T5 construct: purchased Eurofins DiscoverX Corporation

[14] = molecular target: FGR (Homo sapiens, UniProt P09769)
[15] = molecular target: T6, FLT3(N841I) (Homo sapiens, UniProt P36888, N841I)
T6 construct: purchased Eurofins DiscoverX Corporation

[16] = molecular target: T7, GRK1 (Homo sapiens, UniProt Q15835)
T7 construct: purchased Eurofins DiscoverX Corporation

[17] = molecular target: T8, IKK-beta (Homo sapiens, UniProt O14920)
T8 construct: purchased Eurofins DiscoverX (KINOMEscan)

[18] = molecular target: T9, JNK1 (Homo sapiens, UniProt P45983)
T9 construct: purchased Eurofins DiscoverX (KINOMEscan)

[19] = molecular target: T10, JNK2 (Homo sapiens, UniProt P45984)
T10 construct: purchased Eurofins DiscoverX (KINOMEscan)

[20] = molecular target: T11, JNK3 (Homo sapiens, UniProt P53779)
T11 construct: purchased Eurofins DiscoverX (KINOMEscan)

[21] = molecular target: T12, KIT(D816H) (Homo sapiens, UniProt P10721, D816H)
T12 construct: purchased Eurofins DiscoverX (KINOMEscan)

[22] = molecular target: T13, KIT(V559D) (Homo sapiens, UniProt P10721, V559D)
T13 construct: purchased Eurofins DiscoverX Corporation

[23] = molecular target: T14, KIT(V559D+V654A) (Homo sapiens, UniProt P10721, V559D/V654A)
T14 construct: purchased Eurofins DiscoverX Corporation

[24] = molecular target: T15, LATS1 (Homo sapiens, UniProt O95835)
T15 construct: purchased Eurofins DiscoverX Corporation

[25] = molecular target: T16, MEK3 (Homo sapiens, UniProt P46734)
T16 construct: purchased Eurofins DiscoverX Corporation

[26] = molecular target: T17, NEK11 (Homo sapiens, UniProt Q8NG66)
T17 construct: purchased Eurofins DiscoverX Corporation

[27] = molecular target: NEK9 (Homo sapiens, UniProt Q8TD19)
[28] = molecular target: NLK (Homo sapiens, UniProt Q9UBE8)
[29] = molecular target: PIK3CA(Q546K) (Homo sapiens, UniProt P42336, Q546K)
[30] = molecular target: PKN2 (Homo sapiens, UniProt Q16513)
[31] = molecular target: PRKD3 (Homo sapiens, UniProt O94806)
[32] = molecular target: RIOK1 (Homo sapiens, UniProt Q9BRS2)
[33] = molecular target: RSK1(Kin.Dom.1-N-terminal) (Homo sapiens, UniProt Q15418)
[34] = molecular target: SBK1 (Homo sapiens, UniProt Q52WX2)
[35] = molecular target: SNARK (Homo sapiens, UniProt Q9H093)
[36] = molecular target: SRPK2 (Homo sapiens, UniProt P78362)
[37] = molecular target: STK36 (Homo sapiens, UniProt Q9NRP7)
[38] = molecular target: T18, TSSK3 (Homo sapiens, UniProt Q96PN8)
T18 construct: purchased Eurofins DiscoverX Corporation

[39] = molecular target: TYK2(JH1domain-catalytic) (Homo sapiens, UniProt P29597)
[40] = molecular target: ULK1 (Homo sapiens, UniProt O75385)
[41] = molecular target: YSK4 (Homo sapiens, UniProt Q56UN5)
[42] = molecular target: ZAP70 (Homo sapiens, UniProt P43403)
Chain of ZAP70 (P43403 whole entry): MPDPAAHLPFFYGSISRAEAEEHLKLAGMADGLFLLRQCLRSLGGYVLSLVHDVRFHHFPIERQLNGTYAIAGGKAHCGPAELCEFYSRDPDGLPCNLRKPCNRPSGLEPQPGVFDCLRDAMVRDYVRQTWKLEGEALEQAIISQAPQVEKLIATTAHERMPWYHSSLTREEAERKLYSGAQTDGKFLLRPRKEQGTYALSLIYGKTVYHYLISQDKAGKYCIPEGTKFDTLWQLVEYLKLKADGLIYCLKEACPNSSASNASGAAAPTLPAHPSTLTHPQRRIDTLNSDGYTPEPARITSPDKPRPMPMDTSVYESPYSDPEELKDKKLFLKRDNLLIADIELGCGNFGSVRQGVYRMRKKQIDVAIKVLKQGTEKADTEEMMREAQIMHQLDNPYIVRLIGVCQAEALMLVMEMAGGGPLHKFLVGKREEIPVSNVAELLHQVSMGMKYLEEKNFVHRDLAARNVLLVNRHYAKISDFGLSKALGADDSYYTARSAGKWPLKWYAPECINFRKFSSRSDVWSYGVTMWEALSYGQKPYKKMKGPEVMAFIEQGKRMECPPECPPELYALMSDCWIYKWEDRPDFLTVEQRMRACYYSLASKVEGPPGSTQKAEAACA

T7 sequence (Q15835 whole entry): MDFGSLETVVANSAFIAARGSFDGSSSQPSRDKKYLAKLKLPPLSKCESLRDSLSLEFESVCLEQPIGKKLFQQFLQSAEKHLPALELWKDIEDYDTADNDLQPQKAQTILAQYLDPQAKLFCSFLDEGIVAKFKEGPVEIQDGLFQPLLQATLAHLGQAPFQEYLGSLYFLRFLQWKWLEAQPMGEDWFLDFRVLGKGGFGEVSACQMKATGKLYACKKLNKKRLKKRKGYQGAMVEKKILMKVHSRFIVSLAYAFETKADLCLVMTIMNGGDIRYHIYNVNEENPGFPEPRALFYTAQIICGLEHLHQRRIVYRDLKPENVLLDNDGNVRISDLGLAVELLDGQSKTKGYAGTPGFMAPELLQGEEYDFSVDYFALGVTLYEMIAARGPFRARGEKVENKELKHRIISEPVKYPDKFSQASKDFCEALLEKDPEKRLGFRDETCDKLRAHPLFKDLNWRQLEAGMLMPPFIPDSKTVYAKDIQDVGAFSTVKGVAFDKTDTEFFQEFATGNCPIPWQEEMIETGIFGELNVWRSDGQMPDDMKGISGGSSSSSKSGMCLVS
Chain of PIK3CA(Q546K) (P42336 whole entry Q546K): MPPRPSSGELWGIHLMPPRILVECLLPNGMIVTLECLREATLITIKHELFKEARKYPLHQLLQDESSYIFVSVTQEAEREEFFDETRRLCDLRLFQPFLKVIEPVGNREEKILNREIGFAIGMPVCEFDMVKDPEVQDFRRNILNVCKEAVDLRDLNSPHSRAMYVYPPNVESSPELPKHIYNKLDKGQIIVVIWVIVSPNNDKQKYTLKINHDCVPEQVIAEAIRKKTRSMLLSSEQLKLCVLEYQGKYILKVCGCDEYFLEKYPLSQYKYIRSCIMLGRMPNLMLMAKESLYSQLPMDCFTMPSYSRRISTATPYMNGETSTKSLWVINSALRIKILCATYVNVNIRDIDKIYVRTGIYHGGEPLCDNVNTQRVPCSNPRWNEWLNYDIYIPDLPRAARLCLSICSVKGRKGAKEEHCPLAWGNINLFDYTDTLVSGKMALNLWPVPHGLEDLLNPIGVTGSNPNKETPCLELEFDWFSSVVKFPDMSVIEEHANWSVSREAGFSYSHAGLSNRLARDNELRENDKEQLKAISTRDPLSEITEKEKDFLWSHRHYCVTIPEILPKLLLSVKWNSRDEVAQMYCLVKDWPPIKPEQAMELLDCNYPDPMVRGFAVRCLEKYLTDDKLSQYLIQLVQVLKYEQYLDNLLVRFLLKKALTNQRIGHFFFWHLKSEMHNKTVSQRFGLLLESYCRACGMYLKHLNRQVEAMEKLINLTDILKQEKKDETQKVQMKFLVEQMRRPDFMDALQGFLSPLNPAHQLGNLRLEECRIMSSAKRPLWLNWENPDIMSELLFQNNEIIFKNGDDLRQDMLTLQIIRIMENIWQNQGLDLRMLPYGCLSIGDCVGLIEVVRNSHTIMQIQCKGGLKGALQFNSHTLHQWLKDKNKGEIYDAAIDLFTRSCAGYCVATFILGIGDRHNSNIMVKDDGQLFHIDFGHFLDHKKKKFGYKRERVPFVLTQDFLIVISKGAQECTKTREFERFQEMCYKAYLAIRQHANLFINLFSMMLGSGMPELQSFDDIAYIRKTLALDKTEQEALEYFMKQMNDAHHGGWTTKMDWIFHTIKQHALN
T13 sequence (P10721 26-976 V559D): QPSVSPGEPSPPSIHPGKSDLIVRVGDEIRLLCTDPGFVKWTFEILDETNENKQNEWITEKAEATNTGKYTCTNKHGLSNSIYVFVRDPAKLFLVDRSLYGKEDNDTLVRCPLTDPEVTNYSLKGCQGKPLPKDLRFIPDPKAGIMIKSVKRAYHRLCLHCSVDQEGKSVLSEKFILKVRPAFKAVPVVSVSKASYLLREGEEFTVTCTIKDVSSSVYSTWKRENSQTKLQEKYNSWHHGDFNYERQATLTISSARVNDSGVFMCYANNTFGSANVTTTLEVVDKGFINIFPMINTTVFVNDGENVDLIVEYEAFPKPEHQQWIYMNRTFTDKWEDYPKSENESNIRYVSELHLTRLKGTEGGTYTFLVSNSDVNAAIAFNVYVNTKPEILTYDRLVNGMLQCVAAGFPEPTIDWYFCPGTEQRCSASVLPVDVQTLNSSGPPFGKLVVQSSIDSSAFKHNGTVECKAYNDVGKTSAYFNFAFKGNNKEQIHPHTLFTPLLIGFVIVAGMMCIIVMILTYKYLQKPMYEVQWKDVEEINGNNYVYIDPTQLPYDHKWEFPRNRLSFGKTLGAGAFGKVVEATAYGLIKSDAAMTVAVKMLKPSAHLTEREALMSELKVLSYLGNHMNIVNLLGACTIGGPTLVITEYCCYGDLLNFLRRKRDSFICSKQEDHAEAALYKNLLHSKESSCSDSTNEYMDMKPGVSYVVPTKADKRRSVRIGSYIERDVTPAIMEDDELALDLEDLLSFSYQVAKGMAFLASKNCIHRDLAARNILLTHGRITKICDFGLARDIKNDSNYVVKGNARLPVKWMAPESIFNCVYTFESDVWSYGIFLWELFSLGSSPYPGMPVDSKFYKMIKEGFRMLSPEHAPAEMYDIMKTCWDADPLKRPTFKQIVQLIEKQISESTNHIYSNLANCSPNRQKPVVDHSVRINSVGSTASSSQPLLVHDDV
Chain of SBK1 (Q52WX2 whole entry): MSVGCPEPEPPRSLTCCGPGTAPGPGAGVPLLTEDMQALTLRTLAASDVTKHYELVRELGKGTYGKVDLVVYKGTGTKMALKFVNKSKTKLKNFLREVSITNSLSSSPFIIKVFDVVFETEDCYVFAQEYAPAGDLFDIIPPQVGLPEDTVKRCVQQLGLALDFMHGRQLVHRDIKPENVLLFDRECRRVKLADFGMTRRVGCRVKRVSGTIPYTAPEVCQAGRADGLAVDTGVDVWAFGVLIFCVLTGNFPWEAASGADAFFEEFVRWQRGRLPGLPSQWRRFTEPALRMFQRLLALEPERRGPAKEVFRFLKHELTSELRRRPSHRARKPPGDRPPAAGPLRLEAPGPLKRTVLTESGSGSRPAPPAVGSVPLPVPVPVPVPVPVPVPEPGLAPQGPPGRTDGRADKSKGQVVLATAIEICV
T11 sequence (P53779 whole entry): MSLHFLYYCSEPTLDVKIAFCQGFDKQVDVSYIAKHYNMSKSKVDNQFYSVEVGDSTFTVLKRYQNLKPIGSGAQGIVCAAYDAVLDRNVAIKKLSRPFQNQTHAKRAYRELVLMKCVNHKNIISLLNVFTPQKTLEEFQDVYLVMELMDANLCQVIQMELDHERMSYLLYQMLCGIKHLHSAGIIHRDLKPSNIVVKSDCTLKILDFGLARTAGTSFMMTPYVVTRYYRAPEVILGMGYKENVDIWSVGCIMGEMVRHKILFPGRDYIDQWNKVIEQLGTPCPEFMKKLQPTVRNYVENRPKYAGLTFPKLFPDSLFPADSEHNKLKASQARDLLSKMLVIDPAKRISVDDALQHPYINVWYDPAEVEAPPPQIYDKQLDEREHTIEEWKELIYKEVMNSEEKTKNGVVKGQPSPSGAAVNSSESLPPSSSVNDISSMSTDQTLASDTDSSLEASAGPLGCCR
T10 sequence (P45984 whole entry): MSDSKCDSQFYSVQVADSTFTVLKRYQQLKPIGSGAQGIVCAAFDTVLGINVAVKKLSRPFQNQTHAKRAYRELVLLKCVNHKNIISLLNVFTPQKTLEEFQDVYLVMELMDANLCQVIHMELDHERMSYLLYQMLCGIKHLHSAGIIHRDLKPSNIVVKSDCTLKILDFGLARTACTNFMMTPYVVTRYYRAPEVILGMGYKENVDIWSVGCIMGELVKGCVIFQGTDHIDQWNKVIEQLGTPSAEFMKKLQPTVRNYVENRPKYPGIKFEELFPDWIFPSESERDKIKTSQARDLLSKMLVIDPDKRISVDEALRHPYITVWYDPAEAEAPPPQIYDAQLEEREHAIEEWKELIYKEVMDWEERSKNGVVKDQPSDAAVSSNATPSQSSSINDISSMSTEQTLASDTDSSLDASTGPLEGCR
Chain of TYK2(JH1domain-catalytic) (P29597 897-1176 limits assumed): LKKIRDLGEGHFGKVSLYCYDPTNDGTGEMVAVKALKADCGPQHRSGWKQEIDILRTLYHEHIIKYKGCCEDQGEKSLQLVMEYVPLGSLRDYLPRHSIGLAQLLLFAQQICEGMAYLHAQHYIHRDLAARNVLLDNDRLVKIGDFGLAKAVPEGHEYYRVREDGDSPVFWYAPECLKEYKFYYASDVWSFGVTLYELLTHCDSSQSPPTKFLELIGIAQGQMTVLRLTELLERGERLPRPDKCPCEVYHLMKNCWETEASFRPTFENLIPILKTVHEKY
T12 sequence (P10721 26-976 D816H): as the sequence (P10721 26-976 V559D) above, with D534V, D791H counted along it
T14 sequence (P10721 26-976 V559D/V654A): as the sequence (P10721 26-976 V559D) above, with V629A counted along it

For C=CC(=O)Nc1ccc(OC)c(Nc2cc(-c3[nH]c(CC)nc3-c3cccc(NC(=O)c4cccc5c4NC(=O)c4ccccc4N5)c3)ccn2)c1 [Compound 4], the POC [1] was 100% of control, the POC [2] was 85% of control and the POC [3] was 75% of control. For the same molecule, the POC [4] was 100% of control, the POC [5] was 100% of control and the POC [6] was 95% of control. The POC [7] was 100% of control, the POC [8] was 100% of control and the POC [9] was 49% of control. The POC [10] was 100% of control, the POC [11] was 6.3% of control and the POC [12] was 100% of control. For the same molecule, the POC [13] was 88% of control, the POC [14] was 19% of control and the POC [15] was 97% of control. The POC [16] was 94% of control, the POC [17] was 88% of control and the POC [18] was 85% of control. The POC [19] was 78% of control, the POC [20] was 53% of control and the POC [21] was 39% of control. For the same molecule, the POC [22] was 100% of control, the POC [23] was 93% of control and the POC [24] was 100% of control. The POC [25] was 100% of control, the POC [26] was 100% of control and the POC [27] was 83% of control. The POC [28] was 48% of control, the POC [29] was 100% of control and the POC [30] was 100% of control. The POC [31] was 67% of control, the POC [32] was 100% of control and the POC [33] was 4.7% of control. The POC [34] was 84% of control, the POC [35] was 100% of control and the POC [36] was 100% of control. The POC [37] was 30% of control, the POC [38] was 100% of control and the POC [39] was 91% of control. For the same molecule, the POC [40] was 100% of control, the POC [41] was 88% of control and the POC [42] was 97% of control.
